Experimental data from PubChem BioAssay AID179 (DTP/NCI, 2004).
Where “and” joins values, the source holds several entries; their conditions need not be identical. Equal entries are not always repeated. Calls of active or inactive are those of the source.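 How the source made its calls: active means compounds giving half or more protection of infected cells from virus-caused growth loss, again on retest; inactive means the rest.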

Test system: CEM cells HIV-1 protection, formazan growth assay
Assay: NCI AIDS Antiviral Assay
Details: for IC50: measured here: growth of uninfected CEM cells
Method: The ability of compounds to protect human CEM cells from HIV-1 infection is measured as a screen for new compounds capable of inhibiting the HIV virus. Five concentrations of drug were tested on uninfected and infected cells and cell growth was measured using a soluble formazan assay. […] Compounds that provided at least 50% protection were retested. Compounds that provided at least 50% protection on retest were listed as moderately active. Compounds that reproducibly provided 100% protection were listed as confirmed active. […] Note that the inability to provide protection could be due to toxicity.

| Compound | EC50 [µM] | IC50 | outcome |
| --- | --- | --- | --- |
| COc1cc2c(cc1OC)C(CN)C2 (centres undefined) | > 1070 | 30.9 µM and 20 µM |  |
| CN(C)c1ccc(/C=C/C(=O)O)cc1 | > 1150 | > 1150 µM |  |
| O=S1c2ccccc2N=C(c2ccc(Cl)cc2)CC1c1cccs1 (centres undefined) | > 7.41 | > 7.41 µM |  |
| N#CCCN(CCC#N)c1ccc(/C=C2\N=C(c3ccccc3)N(NC(N)=S)C2=O)cc1 | > 200 | > 200 µM |  |
| CC(C)CCCC(C)[C@H]1CC[C@H]2[C@H]3CC[C@H]4C[C@@H](CCC=C(c5cc(Cl)c(O)c(C(=O)O)c5)c5cc(Cl)c(O)c(C(=O)O)c5)CC[C@]4(C)[C@H]3CC[C@]12C (some centres undefined) | > 200 | > 200 µM |  |
| c1ccc([P+](Cc2cccc(C[P+](c3ccccc3)(c3ccccc3)c3ccccc3)c2)(c2ccccc2)c2ccccc2)cc1 | > 200 | 85.1 µM |  |
| COCn1c(C)c(C)c2c(=O)oc(C)nc21 | > 200 | > 200 µM |  |
| Cc1cc(O)c(/C=N/C(=O)NN)c(=O)o1 | > 200 | > 200 µM |  |
| O=c1c2c(sc3ccccc13)CCC2 | > 151 | > 151 µM |  |
| CCOC(=O)Nc1ccc(C(=O)/C=C\c2ccc(N(CC)CC)cc2)cc1 | > 200 | 3.72 µM |  |
| CCCCCCCCCC1CC(=O)OC23CCCC(=O)C12O3 (centres undefined) | > 32.4 | > 32.4 µM |  |
| COc1ccc(N2CCN(c3ccc4c(c3)NCC(=O)N4)CC2)cc1 | > 200 | 45.7 µM |  |
| Cc1ccsc1/C=N/Nc1ccccn1 | > 200 | 21.4 µM |  |
| COC(=O)[C@@H]1c2[nH]c3ccccc3c2C[C@@H]2c3ccccc3NC(=O)[C@@H]21 | > 42.7 | > 42.7 µM |  |
| NC(=O)N/N=C1\CCCCc2ccccc21 | > 200 | > 200 µM |  |
| N#C/C(=C\c1ccc(O)cc1)c1ccc([N+](=O)[O-])cc1 | > 200 | 174 µM |  |
| CC(C)Cc1ccc(C(C)C(=O)O)cc1 (centres undefined) | > 1200 | 389 µM |  |
| O=C1OC(=O)C2C1C(c1ccc(Cl)cc1)N1C3C(=O)OC(=O)C3C(c3ccc(Cl)cc3)N21 (centres undefined) | > 28.8 | > 28.8 µM |  |
| COC(=O)c1c(C#N)c(N)nc2c1CCC2 | > 200 | > 200 µM |  |
| O=S(=O)(O)SCC1=NCCN1 | > 200 | > 200 µM |  |
| COc1cc(-c2cc(=O)c3c(O)c(OC)c(OC)c(OC)c3o2)ccc1O | > 132 | 9.33 µM |  |
| Cc1ccc2c3c(nsc13)-c1ccccc1C2=O | > 53.7 | > 53.7 µM |  |

| Compound | EC50 [µM] | IC50 | outcome |
| --- | --- | --- | --- |
| O=c1oc(C(C(F)(F)F)C(F)(F)F)nc2ccccc12 | > 200 | > 200 µM |  |
| O=C1CCCC2C3CC(CN12)C1CC(O)CCN1C3 (centres undefined) | > 200 | > 200 µM |  |
| COC(=O)c1cc(Br)c(C(=O)C(Cl)(Cl)Cl)[nH]1 | > 200 | > 200 µM |  |
| C=CCOc1ccc(/C(N=Nc2ccc(C)cc2)=N/NC(=O)c2ccccc2)cc1OC | > 200 | 10 µM |  |
| COc1cc(C(=O)O)c(-c2cc3c(cc2C=O)OCO3)c(OC)c1OC | > 692 | > 692 µM |  |
| c1ccc([P+](CCN2Cc3ccccc3C2)(c2ccccc2)c2ccccc2)cc1 | > 200 | 3.31 µM |  |
| N#CN/C(N)=N/C/N=C(\N)NC#N | > 501 | > 501 µM |  |
| COC(=O)C1(c2ccc(N(C)C)cc2OC)CCCN(C(=O)Oc2ccccc2[N+](=O)[O-])CCc2c1[nH]c1ccccc21 (centres undefined) | > 200 | > 200 µM |  |
| O=C1[C@@H]2C(c3c(Cl)cccc3Cl)=NO[C@@H]2C(=O)N1c1ccc(Cc2ccc(N3C(=O)[C@H]4C(c5c(Cl)cccc5Cl)=NO[C@H]4C3=O)cc2)cc1 | > 35.5 | > 35.5 µM |  |
| O=C1OC(=Nc2ccccc2Cl)c2ccccc21 | > 200 | > 200 µM |  |
| Cc1cc2c(c(C(N)=O)c1C)-c1cccc(Cl)c1C2=O |  |  | inactive |
| CN1C(=O)Cn2c(n[nH]c(=O)c2=O)-c2cc(Cl)ccc21 | > 302 | > 302 µM |  |
| O=C(Nc1ccccc1)C(=O)C(C(=O)c1ccccc1)C(c1ccccc1)c1ccccc1 (centres undefined) | > 200 | 37.2 µM |  |
| CN(C)CCn1nc(N)c2nc3cc(C(F)(F)F)ccc3nc21 | > 100 | 63.1 µM |  |
| CCOC(=O)[C@]12C3C=CC(C3)C1C(=O)C1OC12 (some centres undefined) | > 562 | > 562 µM |  |
| CCNc1cc2c3c(c1)CCCN3CCC2 | > 200 | 8.51 µM |  |
| CCCCN(CCCC)CN1C(=O)/C(=C/c2ccc(NC(C)=O)cc2)NC1=S | > 200 | > 200 µM |  |
| CCCC(=O)Nc1cc(C)c(NC(=O)CN(CC)CC)c(C)c1 | > 200 | > 200 µM |  |
| CC([C@H]1CCC2C3CCC4CC5(CC[C@]4(C)C3CC[C@@]21C)c1ccccc1C(=O)N5C)N(C)C (some centres undefined) | > 8.13 | > 8.13 µM |  |
| CCOC(=O)C(C(=O)OCC)C(C(=O)OCC)(C(=O)OCC)C(C(=O)OCC)C(=O)OCC |  |  | inactive |
| Cc1ccc(N(C(=[As]c2ccccc2)C(C)(C)C)[Si](C)(C)C)cc1 (centres undefined) | > 18.2 | > 18.2 µM |  |
